From the NIST ThermoML archive (doi:10.1016/j.jct.2010.12.019)
Values joined by “and” are separate entries in the source; they are usually repeats but may differ in a detail not shown here. Equal entries are not always repeated. ± gives the expanded uncertainty stated by the source.

How the values were obtained:
[1] = activity coefficient (dimensionless); of the first substance listed, at infinite dilution; xn = mol fraction of the nth substance listed; settings: Liquid, Chromatography, x1 = 0
[2] = 293.15 K; 101.33 kPa; Liquid; Pycnometric method

activity coefficient ([1]; 313.15 K) | activity coefficient ([1]; 323.15 K) | activity coefficient ([1]; 333.15 K) | mass density [2] [kg/m3] | Structure (SMILES)
4.26 and 4.05 | 4.11 and 4.23 | 4.1 and 4.32 |  | C#CCCCC [1-hexyne] + CCCCn1cc[n+](C)c1.[F][Sb-]([F])([F])([F])([F])[F]
40.4 and 44.6 | 39.5 and 42.7 | 39.2 and 42.7 |  | CCCCCCCC [octane] + CCCCn1cc[n+](C)c1.[F][Sb-]([F])([F])([F])([F])[F]
1.7 and 1.88 | 1.64 and 1.71 | 1.57 ± 0.13 |  | CO [methanol] + CCCCn1cc[n+](C)c1.[F][Sb-]([F])([F])([F])([F])[F]
11.4 and 11.9 | 10.6 and 10.9 | 10.2 and 10.7 |  | C1CCCC1 [cyclopentane] + CCCCn1cc[n+](C)c1.[F][Sb-]([F])([F])([F])([F])[F]
5.74 and 6.11 | 5.82 and 6.08 | 5.74 and 6.23 |  | C#CCCCCC [1-heptyne] + CCCCn1cc[n+](C)c1.[F][Sb-]([F])([F])([F])([F])[F]
20 and 18.7 | 15.7 and 21.1 | 17.3 and 18.2 |  | C1CCCCCC1 [cycloheptane] + CCCCn1cc[n+](C)c1.[F][Sb-]([F])([F])([F])([F])[F]
10.1 and 10.5 | 10.2 ± 0.9 | 9.94 and 10.4 |  | C=CCCC [1-pentene] + CCCCn1cc[n+](C)c1.[F][Sb-]([F])([F])([F])([F])[F]
8.68 and 9.4 | 8.82 and 9.08 | 8.56 and 8.99 |  | C#CCCCCCC [1-octyne] + CCCCn1cc[n+](C)c1.[F][Sb-]([F])([F])([F])([F])[F]
11.4 and 11.6 | 10.9 and 11.8 | 10.9 and 11.6 |  | C#CCCCCCCC [1-nonyne] + CCCCn1cc[n+](C)c1.[F][Sb-]([F])([F])([F])([F])[F]
16.4 and 15.4 | 11 and 18.6 | 14.1 and 14.6 |  | C1CCCCC1 [cyclohexane] + CCCCn1cc[n+](C)c1.[F][Sb-]([F])([F])([F])([F])[F]
2.8 and 2.88 | 2.89 and 2.9 | 2.93 and 3.03 |  | C#CCCC [1-pentyne] + CCCCn1cc[n+](C)c1.[F][Sb-]([F])([F])([F])([F])[F]
22.9 and 23.4 | 17.2 and 27.1 | 20.4 and 21.5 |  | C1CCCCCCC1 [cyclooctane] + CCCCn1cc[n+](C)c1.[F][Sb-]([F])([F])([F])([F])[F]
 |  |  | 1694.3 ± 3.8 | CCCCn1cc[n+](C)c1.[F][Sb-]([F])([F])([F])([F])[F] [1-butyl-3-methylimidazolium hexafluoroantimonate]
25.7 ± 2.2 | 24.6 and 25.7 | 24.2 and 24.9 |  | C=CCCCCCC [oct-1-ene] + CCCCn1cc[n+](C)c1.[F][Sb-]([F])([F])([F])([F])[F]
47.7 and 48.8 | 44.9 and 49.1 | 44.1 and 47.3 |  | CCCCCCCCC [nonane] + CCCCn1cc[n+](C)c1.[F][Sb-]([F])([F])([F])([F])[F]
28.6 and 27.9 | 26.4 and 28.2 | 26 and 26.6 |  | CCCCCC [hexane] + CCCCn1cc[n+](C)c1.[F][Sb-]([F])([F])([F])([F])[F]
19.3 and 21.1 | 17.8 and 19.7 | 15.9 and 16.6 |  | C=CCCCCC [1-heptene] + CCCCn1cc[n+](C)c1.[F][Sb-]([F])([F])([F])([F])[F]
14 and 13.1 | 13 and 14.1 | 13.4 and 13.8 |  | C=CCCCC [hex-1-ene] + CCCCn1cc[n+](C)c1.[F][Sb-]([F])([F])([F])([F])[F]
2.33 and 2.46 | 2.14 and 2.3 | 2.01 and 2.07 |  | CCO [ethanol] + CCCCn1cc[n+](C)c1.[F][Sb-]([F])([F])([F])([F])[F]
3.13 and 3.22 | 2.82 and 2.96 | 2.51 and 2.75 |  | CCCO [propan-1-ol] + CCCCn1cc[n+](C)c1.[F][Sb-]([F])([F])([F])([F])[F]
1.23 and 1.31 | 1.28 and 1.37 | 1.31 and 1.37 |  | c1ccccc1 [benzene] + CCCCn1cc[n+](C)c1.[F][Sb-]([F])([F])([F])([F])[F]
19.6 and 21.5 | 17.6 and 18.3 | 17 and 18.1 |  | CCCCC [pentane] + CCCCn1cc[n+](C)c1.[F][Sb-]([F])([F])([F])([F])[F]
37.1 and 38.7 | 34.2 and 35.8 | 31.4 and 34.4 |  | CCCCCCC [heptane] + CCCCn1cc[n+](C)c1.[F][Sb-]([F])([F])([F])([F])[F]
3.11 and 2.92 | 3.09 and 3.23 | 3.18 and 3.45 |  | CCc1ccccc1 [ethylbenzene] + CCCCn1cc[n+](C)c1.[F][Sb-]([F])([F])([F])([F])[F]
32.4 and 32.6 | 30.8 and 33.4 | 30.8 and 32.6 |  | C=CCCCCCCC [1-nonene] + CCCCn1cc[n+](C)c1.[F][Sb-]([F])([F])([F])([F])[F]

Structure (SMILES) | activity coefficient ([1]; 313.15 K) | activity coefficient ([1]; 323.15 K) | activity coefficient ([1]; 333.15 K) | mass density [2] [kg/m3]
CCC(C)=O [butanone] + CCCCn1cc[n+](C)c1.[F][Sb-]([F])([F])([F])([F])[F] | 0.648 and 0.632 | 0.681 ± 0.058 | 0.702 and 0.718 | 
CC(C)=O [acetone] + CCCCn1cc[n+](C)c1.[F][Sb-]([F])([F])([F])([F])[F] | 0.403 and 0.437 | 0.445 and 0.466 | 0.463 and 0.487 | 
Cc1ccccc1 [toluene] + CCCCn1cc[n+](C)c1.[F][Sb-]([F])([F])([F])([F])[F] | 1.87 and 1.78 | 1.88 and 1.94 | 1.92 and 1.97 | 
